The record followed here is ChEMBL document CHEMBL1201862, “PubChem BioAssay data set” (2004).

Test [1] has as its target T1, Calpain-2 catalytic subunit (Sus scrofa, UniProt P43367).
T1 sequence (P43367 whole entry): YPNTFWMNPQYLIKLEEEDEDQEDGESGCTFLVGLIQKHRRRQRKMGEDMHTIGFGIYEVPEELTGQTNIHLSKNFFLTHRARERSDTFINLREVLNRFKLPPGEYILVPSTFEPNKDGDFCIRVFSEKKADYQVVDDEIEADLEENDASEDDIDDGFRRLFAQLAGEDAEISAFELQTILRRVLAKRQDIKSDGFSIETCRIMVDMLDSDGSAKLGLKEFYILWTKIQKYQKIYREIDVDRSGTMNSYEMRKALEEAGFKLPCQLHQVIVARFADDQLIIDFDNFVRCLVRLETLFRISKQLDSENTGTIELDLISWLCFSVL
In words: m-calpain protease blockers, concentration series – biochemical, fluorogenic peptide substrate, dose response (AID 1420). Type of test: functional.

Test [2] in a line: A549 lung cell viability reduction – CellTiter-Glo luminescence, cherry-pick, cytotoxicity control, dose response (AID 743484). Format: functional, cell-based. (In general: ATP-based viability assays read luminescence as a measure of living cells.)
Test [3] can be described thus: HepG2 viability loss by ATP level – cell-based, CellTiter-Glo luminescence, cherry-pick, set 4, cytotoxicity control, dose response (AID 743480). Type of test: functional.
The nature of test [4]: ATP-based viability loss in HEK293T cells – cell-based, CellTiter-Glo luminescence, cherry-picked samples, set 4, cytotoxicity control, dose response (AID 743441). Type of test: functional. Particulars: HEK293.
The nature of test [5]: IC50 of Artemis nuclease activity blockers – biochemical, fluorescence intensity, dose response (AID 720701).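 Further: Artemis endonuclease enzyme.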 Type of test: functional.
Another test concerns the target Large T antigen (Simian virus 40, UniProt P03070). Format: functional, Betapolyomavirus macacae.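 Further: Confirmatory-stage PubChem screen for compounds that inhibit SV40 T antigen.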
For test [6], the target named is T2, Mannose-6-phosphate isomerase (Homo sapiens, UniProt P34949).
T2 sequence (P34949 whole entry): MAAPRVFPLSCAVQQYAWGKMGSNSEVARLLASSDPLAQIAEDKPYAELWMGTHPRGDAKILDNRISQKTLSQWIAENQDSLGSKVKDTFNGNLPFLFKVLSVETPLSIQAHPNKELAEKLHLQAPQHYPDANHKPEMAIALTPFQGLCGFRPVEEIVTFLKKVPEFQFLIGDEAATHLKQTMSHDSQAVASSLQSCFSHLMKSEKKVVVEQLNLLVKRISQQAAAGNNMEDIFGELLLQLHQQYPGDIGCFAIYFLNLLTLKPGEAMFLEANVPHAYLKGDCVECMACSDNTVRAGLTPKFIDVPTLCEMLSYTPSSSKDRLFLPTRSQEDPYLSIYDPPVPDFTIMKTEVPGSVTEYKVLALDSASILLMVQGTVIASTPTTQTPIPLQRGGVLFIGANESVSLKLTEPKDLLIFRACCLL
In words: MPI inhibition at elevated mannose 6-phosphate – biochemical, fluorescence intensity, high mannose 6-phosphate, primary screen (AID 1220).

The target in test [7] is Glutathione-S-transferase (Schistosoma japonicum, UniProt Q26513). In words: GST-antibody interaction or FRET quenching – biochemical, TR-FRET, artefact control for Vif-APOBEC3G degradation inhibitor project, dose response (AID 1117362). Type of test: functional.
Test [8] in a line: inhibitors acting on PAX2 in cells – cell-based, plate reader, dry powder samples, selectivity assay for PAX8 inhibitor project, dose response (AID 743048).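 Further: HEK293 cells carrying a WT1 promoter luciferase reporter driven by expressed Pax2; potency is for inhibition of Pax2 driven reporter signal.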 Format: functional.
Test [9] in a line: PAX5 cellular inhibition readout – cell-based, plate reader, dry powder samples, selectivity assay for PAX8 inhibitor project, dose response (AID 743047).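 Further: HEK293 cells carrying a Pax5 driven CD19 promoter luciferase reporter; potency of inhibitors that lower reporter luminescence.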 Format: functional.
Test [10] can be described thus: COV434 cell viability loss – plate reader, dry powder, SA7, cytotoxicity control for PAX8 inhibitor project, dose response (AID 743145). Type of test: functional, cell-based.
Test [11] can be described thus: PAX8-dependent cell viability loss – plate reader, dry powder, dose response (AID 743049). Type of test: functional, cell-based.
Test [12] in a line: Trypanosoma cruzi growth suppression in host cells – NIH3T3 host cells, beta-gal luminescence, confirmation (AID 2044).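 Further: intracellular parasites grown in NIH/3T3 mouse fibroblasts as host cells; luminescent beta-galactosidase reporter signal from transgenic T. cruzi replicating inside host cells; inhibitors lower the luminescence signal.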 Format: functional, cell-based.
A short description of test [13]: NIH3T3 cell viability loss – ATP luminescence, mouse fibroblasts, counter-screen, dose response (AID 2010).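 Further: cells exposed to compound for about 90 hours before reading.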 Format: functional, cell-based. (In general: The purpose of a counterscreen is to sort out artefacts and off-target activity.)
Test [14] concerns the target DNA repair and recombination protein RAD54-like (Homo sapiens, UniProt Q92698). In words: RAD54 Holliday junction migration blockers – biochemical, fluorescence, cherry-picked samples, dose series, confirmation (AID 651657). Type of test: functional.
Test [15] concerns the target E3 ubiquitin-protein ligase UHRF1 (Homo sapiens, UniProt Q96T88). In words: Counterscreen for inhibitors of 5-meCpG-binding domain protein 2 (MBD2): TRFRET-based biochemical high throughput dose response assay to identify inhibitors of binding of ubiquitin-like with PHD and ring finger domains 1 (UHRF1) to methylated oligonucleotide.

Activity calls are given as the source filed them.

Sequence of DNA repair and recombination protein RAD54-like (Q92698 whole entry, the tested form may be a part): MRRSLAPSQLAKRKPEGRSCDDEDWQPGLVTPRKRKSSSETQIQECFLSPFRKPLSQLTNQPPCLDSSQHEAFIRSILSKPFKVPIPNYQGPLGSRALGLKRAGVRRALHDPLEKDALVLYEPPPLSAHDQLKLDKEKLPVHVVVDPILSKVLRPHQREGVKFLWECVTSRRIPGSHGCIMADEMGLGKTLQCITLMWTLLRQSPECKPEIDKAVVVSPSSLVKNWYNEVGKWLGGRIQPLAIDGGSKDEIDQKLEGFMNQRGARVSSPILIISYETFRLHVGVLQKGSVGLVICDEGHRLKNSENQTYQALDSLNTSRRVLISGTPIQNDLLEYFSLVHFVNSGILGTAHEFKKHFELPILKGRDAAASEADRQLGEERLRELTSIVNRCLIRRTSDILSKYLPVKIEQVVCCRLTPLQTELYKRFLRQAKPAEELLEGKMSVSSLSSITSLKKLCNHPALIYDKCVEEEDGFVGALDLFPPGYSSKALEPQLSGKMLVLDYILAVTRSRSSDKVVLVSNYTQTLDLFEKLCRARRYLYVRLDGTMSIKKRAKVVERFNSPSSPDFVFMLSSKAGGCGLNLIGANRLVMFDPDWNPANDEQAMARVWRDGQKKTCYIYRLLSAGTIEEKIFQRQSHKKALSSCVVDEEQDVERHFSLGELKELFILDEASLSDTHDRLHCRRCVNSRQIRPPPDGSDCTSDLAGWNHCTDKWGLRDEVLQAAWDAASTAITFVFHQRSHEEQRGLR
Sequence of Large T antigen (P03070 whole entry): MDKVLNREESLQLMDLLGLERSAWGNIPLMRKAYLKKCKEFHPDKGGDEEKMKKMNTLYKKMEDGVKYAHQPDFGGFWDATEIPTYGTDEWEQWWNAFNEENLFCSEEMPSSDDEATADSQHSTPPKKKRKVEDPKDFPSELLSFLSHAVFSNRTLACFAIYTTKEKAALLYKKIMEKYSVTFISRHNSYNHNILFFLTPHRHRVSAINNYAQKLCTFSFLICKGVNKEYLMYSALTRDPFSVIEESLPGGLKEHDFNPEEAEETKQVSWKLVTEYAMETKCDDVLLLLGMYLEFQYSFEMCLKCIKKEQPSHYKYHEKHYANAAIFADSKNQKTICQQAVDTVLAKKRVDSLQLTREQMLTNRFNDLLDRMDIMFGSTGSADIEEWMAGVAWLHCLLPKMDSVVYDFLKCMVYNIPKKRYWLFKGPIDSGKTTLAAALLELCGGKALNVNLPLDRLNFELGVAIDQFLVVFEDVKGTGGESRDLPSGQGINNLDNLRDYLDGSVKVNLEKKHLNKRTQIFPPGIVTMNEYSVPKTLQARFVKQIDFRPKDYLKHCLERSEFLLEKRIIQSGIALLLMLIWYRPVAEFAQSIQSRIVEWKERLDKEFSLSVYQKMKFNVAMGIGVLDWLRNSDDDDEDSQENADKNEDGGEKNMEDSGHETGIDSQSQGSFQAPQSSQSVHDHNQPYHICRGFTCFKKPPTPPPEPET
Sequence of Glutathione-S-transferase (Q26513 whole entry): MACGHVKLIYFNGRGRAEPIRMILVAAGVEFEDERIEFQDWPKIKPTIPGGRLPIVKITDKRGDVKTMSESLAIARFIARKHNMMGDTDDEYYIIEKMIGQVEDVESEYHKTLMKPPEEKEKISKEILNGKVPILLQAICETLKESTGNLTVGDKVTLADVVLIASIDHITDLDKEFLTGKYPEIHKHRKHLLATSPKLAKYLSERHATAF
Sequence of E3 ubiquitin-protein ligase UHRF1 (Q96T88 whole entry, the tested form may be a part): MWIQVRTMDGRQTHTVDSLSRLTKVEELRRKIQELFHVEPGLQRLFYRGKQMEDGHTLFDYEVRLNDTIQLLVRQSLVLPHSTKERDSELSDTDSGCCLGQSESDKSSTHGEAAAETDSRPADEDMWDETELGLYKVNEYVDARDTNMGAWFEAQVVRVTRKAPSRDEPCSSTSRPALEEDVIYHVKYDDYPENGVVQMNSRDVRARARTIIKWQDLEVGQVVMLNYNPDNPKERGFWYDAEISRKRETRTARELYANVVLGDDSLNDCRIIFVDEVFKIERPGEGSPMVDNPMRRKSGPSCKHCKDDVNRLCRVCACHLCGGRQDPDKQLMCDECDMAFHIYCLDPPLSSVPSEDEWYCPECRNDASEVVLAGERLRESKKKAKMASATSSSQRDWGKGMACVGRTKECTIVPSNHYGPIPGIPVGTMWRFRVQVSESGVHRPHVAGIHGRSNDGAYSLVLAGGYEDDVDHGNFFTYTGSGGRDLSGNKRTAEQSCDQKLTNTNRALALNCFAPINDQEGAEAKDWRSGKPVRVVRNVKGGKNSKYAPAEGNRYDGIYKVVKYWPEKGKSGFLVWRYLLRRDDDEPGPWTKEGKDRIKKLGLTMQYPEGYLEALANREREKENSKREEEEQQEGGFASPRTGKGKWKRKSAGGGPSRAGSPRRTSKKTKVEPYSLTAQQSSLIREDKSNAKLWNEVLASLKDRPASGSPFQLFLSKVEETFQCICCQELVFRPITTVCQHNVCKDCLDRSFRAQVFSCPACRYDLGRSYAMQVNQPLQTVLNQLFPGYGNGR

In the case of `O=C(COC(=O)c1cccc(O)c1)Nc1ccc(Cl)cc1C(=O)c1ccccc1`, the IC50 in test [1] is 17.9 µM (not active). Besides, the concentration at half-maximal activity (AC50) in test [2] is 32.3 µM (active); in [3], > 52 µM (inactive); in [4], > 52 µM (inactive).
As for `O=C(Nc1nc2n(n1)C(c1ccccc1)CC(c1ccc(Cl)cc1)N2)c1ccco1` (stereo unspecified), the half-maximal inhibitory concentration (IC50) in test [5] was 18.7 µM (active).
Take `CN(C(=S)Nc1cccnc1)c1ccc(O)cc1`: the IC50 at Large T antigen is 58.4 µM (active); in test [6] it was > 50 µM (not active); in test [7], > 100 µM (active).
As to `N#C[C@H]1[C@@H](c2ccc(C3=CCCC3)cc2)[C@@H](CO)N1C(=O)NC1CCCCC1`, the concentration at half-maximal activity (AC50) in test [8] was 52.1 µM (active); in [9], > 70 µM (inactive); in test [10], > 70 µM (inactive); in test [11], 61.5 µM (active).
In the case of `Cc1ccc2nc(Cl)c3cc(C(=O)NCCCN4CCCC4)sc3c2c1`, the 50% effective concentration (EC50) in test [12] was 1.65 µM (active); in [13] it was 9.72 µM (active). In addition, the half-maximal activity concentration (AC50) in test [14] is 11.4 µM (active). Further, the IC50 in [15] was > 43.8 µM (inactive).

What is called IC50 is the point on the concentration scale where inhibition reaches its midpoint. For orientation: AC50 means the concentration giving half of the maximal activity seen. For orientation: EC50 means the concentration giving half of the maximal effect.
